Experimental data: patent US20260109731A1, “NE[…] USE THEREOF” (HUNAN MINGRUI PHARMACEUTICAL CO., LTD., priority 2023, published 2026)
“And” between values parts separate entries of the source, which are not always exact repeats. Equal values may be shown once.

Tests used:
[1] = In vitro phase I metabolic stability in male SD rat hepatic microsomes; format: in vitro ADME; details: male SD rat hepatic microsomes
Description: Phase I metabolic stability kit (purchased from HUIZHI HEYUAN BIOTECHNOLOGY (BEIJING) CO., LTD), with the following components of the product:
Positive substrate testosterone solution (10 mM): diluted with acetonitrile to prepare a 200 μM solution for later use; stop solution & internal standard (testosterone-D3): dissolved with acetonitrile to prepare a 5 ng/mL solution for later use.
• 1) all components of the kit were thawed in an ice bath and placed on ice for later use; • 2) an incubation system (taking 200 μL system as an example) was prepared:
• 3) 160 μL of pre-incubation solution B was added into the centrifuge tube containing 40 μL of pre-incubation solution A, uniform mixing was performed by pipetting three times, and the resulting mixture was immediately placed in a water bath at 37° C. for incubation and timing was started; • 4) at predetermined incubation time points (0, 5, 10, 15, 30, 45, 60 minutes), the incubation solution was quantitatively taken out, and 200 μL of stop solution (5 ng/mL testosterone-D3 in acetonitrile, pre-chilled at 4° C.) was added to terminate the reaction (stop solution volume: incubation system volume=1:1). Experimental samples were prepared in triplicate at each time point.
To verify the validity of the experiment, a positive control group was established concurrently in the whole experiment to evaluate whether the incubation system functioned properly, with the preparation method as follows: the compound to be tested was replaced with the positive substrate testosterone (200 μM in acetonitrile) from the phase I metabolic stability kit, and the other components of the incubation system and experimental method were the same as those of the experimental group.
The ratio of the chromatographic peak area of the compound to be tested to the chromatographic peak area of the testosterone-D3 (internal standard) was used as the calculated data. By taking the peak area ratio at time zero of the test compound as 100%, the remaining percentages were calculated by comparing the peak area ratio at each time point with the peak area ratio at time zero, and the natural logarithms of the remaining percentages of the substrate at each time point are then subjected to linear regression against the incubation times to obtain the slope k. Therefore, the in vitro metabolic half-life (T1/2) and intrinsic clearance (CLint) were calculated using the following formulas: […]

[2] = Pharmacokinetic analysis of tail vein administration in female rats
Description: (§1) • Female SD rats (body weight: 200 g to 220 g) were purchased from BEIJING HFK BIOSCIENCE CO., LTD.
60 female SD rats were divided into two groups (Aintravenous and Bintravenous), with 30 rats per group (5 rats per blood collection time point). The drugs Aintravenous and Bintravenous were administered via tail vein injection at 3 mg/kg each (about 1.2 mL of drug solution). Blood was collected from the orbital venous plexus at time points (5 min, 30 min, 1 h, 2 h, 4 h, and 8 h) after administration, respectively, anticoagulated with heparin, and centrifuged, and then the plasma was separated and stored at −80° C. for later testing. At 8 h after blood collection, the animals were sacrificed, and the brain and liver tissues were taken and stored at −80° C. for later testing.
(§2) 100 μL of plasma sample, 10 μL of internal standard solution (100 ng/mL testosterone D-3 solution), and 310 μL of acetonitrile were accurately measured, uniformly mixed by vortexing, and centrifuged (14000 rpm, 4° C.), and a resulting supernatant was taken and detected using UPLC-MS/MS (the analysis method was the same as that in pharmacokinetic analysis in mice).
(§3) About 100 mg of brain or liver tissue sample was taken, and accurately weighed. 100 μL of water and 400 μL acetonitrile were accurately added thereto, and a resulting mixture was subjected to homogenization. 100 μL of brain or liver tissue homogenate, 10 μL of internal standard solution (100 ng/mL testosterone D-3 solution), and 310 μL of acetonitrile were accurately measured, uniformly mixed by vortexing, and centrifuged (14000 rpm, 4° C.), and a resulting supernatant was taken and detected using UPLC-MS/MS (the analysis method was the same as that in pharmacokinetic analysis in mice).

[3] = Pharmacokinetic analysis of oral gavage administration in female rats
Description: as §1
60 female SD rats were divided into two groups (Aoral and Boral), with 30 rats per group (5 rats per blood collection time point). The drugs Aoral and Boral were administered via oral gavage administration at 12 mg/kg each (about 1.6 mL of drug solution). Blood was collected from the orbital venous plexus at each time point (5 min, 30 min, 1 h, 2 h, 4 h, and 8 h) after administration, respectively, anticoagulated with heparin, and centrifuged, and then the plasma was separated and stored at −80° C. for later testing. At 8 h after blood collection, the animals were sacrificed, and the brain and Liver tissues were taken and stored at −80° C. for later testing.
as §2, §3

[4] = Pharmacokinetic analysis of oral administration to male rats; format: in vivo; details: oral gavage 12 mg/kg; for Blood drug concentration: individual rats 1-7
From the text: Male SD rats (body weight: 230 g to 250 g) were purchased from BEIJING HFK BIOSCIENCE CO., LTD.

[5] = female, SD, rat, plasma, iv, 3 mg/kg

SMILES: CC(=O)[C@H]1CC[C@H]2[C@@H]3CC[C@H]4C[C@H](O[N+](=O)[O-])CC[C@]4(C)[C@H]3CC[C@]12C [Compound 1]
- half-life ([1]; liver microsomes, NADPH system, 37° C., read-out: T1/2 (in vitro metabolic half-life)): 1.56 h
- microsomal CLint ([1]; liver microsomes, read-out: intrinsic clearance): 14.8 µL/min/mg
- In vitro CLint ([1]; 37° C.): 14.82 μL/min/mg protein
- k (slope of ln remaining percentage against incubation time) ([1]; 37° C.): −0.0074
- level of allopregnanolone in the liver after administration of compound 1 ([2]; female SD rats, intravenous compound 1, 3 mg/kg, 8 h): undetectable
- concentration at 8 h ([2]; female, SD, rat, brain, intravenous, 3 mg/kg): 209 ng/g
- Kp at 8 h ([2]; female, SD, rat, brain/plasma, intravenous, 3 mg/kg): 6.68
- concentration at 8 h ([2]; female, SD, rat, liver, iv, 3 mg/kg): 193 ng/g
- clearance [2, 5]: 87.8 mL/min/kg
- half-life [2, 5]: 0.96 h
- Oral bioavailability ([3]; female SD rats, oral gavage 12 mg/kg vs tail vein 3 mg/kg): >65%
- clearance ([3]; female SD rats, oral gavage, 12 mg/kg, sesame oil solution): 9.67 mL/min/kg
- concentration at 8 h ([3]; female, SD, rat, brain, po, 12 mg/kg): 1640 ng/g
- Kp at 8 h ([3]; female, SD, rat, brain/plasma, po, 12 mg/kg): 2.95
- concentration at 8 h ([3]; female, SD, rat, liver, po, 12 mg/kg): 3700 ng/g
- bioavailability ([3]; female, SD, rat, plasma, oral, 12 mg/kg): > 65%
- Tmax ([3]; female, SD, rat, plasma, po, 12 mg/kg): > 8 h
- Blood drug concentration ([4]; male SD rats, 0.5 h, 12 mg/kg): 4.1 ng/mL and 5.7 ng/mL and 16.2 ng/mL and 8.7 ng/mL and 8.3 ng/mL and 8.1 ng/mL and 8.4 ng/mL
- Blood drug concentration ([4]; male SD rats, 1 h, 12 mg/kg): 14.1 ng/mL and 18.9 ng/mL and 35.9 ng/mL and 31.5 ng/mL and 22.3 ng/mL and 23.8 ng/mL and 50.6 ng/mL
- Blood drug concentration ([4]; male SD rats, 2 h, 12 mg/kg): 38.2 ng/mL and 85.8 ng/mL and 132.2 ng/mL and 88.8 ng/mL and 111.4 ng/mL and 123 ng/mL and 251.1 ng/mL
- Blood drug concentration ([4]; male SD rats, 3 h, 12 mg/kg): 71.9 ng/mL and 121.8 ng/mL and 288.6 ng/mL and 243.6 ng/mL and 103.9 ng/mL and 130.9 ng/mL and 616.7 ng/mL
- Blood drug concentration ([4]; male SD rats, 4 h, 12 mg/kg): 95.1 ng/mL and 147 ng/mL and 279.6 ng/mL and 252.2 ng/mL and 270.9 ng/mL and 343.8 ng/mL and 318.5 ng/mL
- Blood drug concentration ([4]; male SD rats, 5 h, 12 mg/kg): 250.4 ng/mL and 142.4 ng/mL and 252.4 ng/mL and 284.1 ng/mL and 262.5 ng/mL and 410.7 ng/mL and 582.4 ng/mL
- Blood drug concentration ([4]; male SD rats, 6 h, 12 mg/kg): 259.8 ng/mL and 263.9 ng/mL and 161.2 ng/mL and 260.7 ng/mL and 287.5 ng/mL and 409.8 ng/mL and 687.1 ng/mL
- Blood drug concentration ([4]; male SD rats, 8 h, 12 mg/kg): 121.7 ng/mL and 276.1 ng/mL and 383.6 ng/mL and 523.1 ng/mL and 496.4 ng/mL and 78.9 ng/mL and 556.5 ng/mL
- Blood drug concentration ([4]; male SD rats, 10 h, 12 mg/kg): 167.3 ng/mL and 1144.3 ng/mL and 424.6 ng/mL and 914.9 ng/mL and 382.7 ng/mL and 196.1 ng/mL and 396.3 ng/mL
- Blood drug concentration ([4]; male SD rats, 12 h, 12 mg/kg): 513.5 ng/mL and 873.9 ng/mL and 343.7 ng/mL and 730.7 ng/mL and 234.9 ng/mL and 303.8 ng/mL and 285.4 ng/mL
- Blood drug concentration ([4]; male SD rats, 18 h, 12 mg/kg): 68.5 ng/mL and 110.5 ng/mL and 196.7 ng/mL and 97 ng/mL and 83.3 ng/mL and 73.4 ng/mL and 134.5 ng/mL
- Blood drug concentration ([4]; male SD rats, 24 h, 12 mg/kg): 13.7 ng/mL and 68.5 ng/mL and 61.6 ng/mL and 20.7 ng/mL and 27.6 ng/mL and 13.8 ng/mL and 133.4 ng/mL
- Tmax ([4]; male SD rats, 12 mg/kg): 9.7 h
- concentration at 0.5 h ([4]; male, SD, rat, plasma, po, 12 mg/kg, 0.5 h, mean of 7 rats, read-out: Blood drug concentration, Mean value): 8.5 ng/mL
- concentration at 1 h ([4]; male, SD, rat, plasma, po, 12 mg/kg, 1 h, mean of 7 rats, read-out: Blood drug concentration, Mean value): 28.2 ng/mL
- concentration at 2 h ([4]; male, SD, rat, plasma, po, 12 mg/kg, 2 h, mean of 7 rats, read-out: Blood drug concentration, Mean value): 119 ng/mL
- concentration at 3 h ([4]; male, SD, rat, plasma, po, 12 mg/kg, 3 h, mean of 7 rats, read-out: Blood drug concentration, Mean value): 225 ng/mL
- concentration at 4 h ([4]; male, SD, rat, plasma, po, 12 mg/kg, 4 h, mean of 7 rats, read-out: Blood drug concentration, Mean value): 244 ng/mL
- concentration at 5 h ([4]; male, SD, rat, plasma, po, 12 mg/kg, 5 h, mean of 7 rats, read-out: Blood drug concentration, Mean value): 312 ng/mL
- concentration at 6 h ([4]; male, SD, rat, plasma, po, 12 mg/kg, 6 h, mean of 7 rats, read-out: Blood drug concentration, Mean value): 333 ng/mL
- concentration at 8 h ([4]; male, SD, rat, plasma, po, 12 mg/kg, 8 h, mean of 7 rats, read-out: Blood drug concentration, Mean value): 348 ng/mL
- concentration at 10 h ([4]; male, SD, rat, plasma, po, 12 mg/kg, 10 h, mean of 7 rats, read-out: Blood drug concentration, Mean value): 518 ng/mL
- concentration at 12 h ([4]; male, SD, rat, plasma, po, 12 mg/kg, 12 h, mean of 7 rats, read-out: Blood drug concentration, Mean value): 469 ng/mL
- concentration at 18 h ([4]; male, SD, rat, plasma, po, 12 mg/kg, 18 h, mean of 7 rats, read-out: Blood drug concentration, Mean value): 109 ng/mL
- concentration at 24 h ([4]; male, SD, rat, plasma, po, 12 mg/kg, 24 h, mean of 7 rats, read-out: Blood drug concentration, Mean value): 48.5 ng/mL
- Tmax ([4]; male, SD, rat, plasma, po, 12 mg/kg, read-out: Tmax): ~10 h
- AUC(0-inf) ([4]; rat, plasma, male SD rats): 6220 ng·h/mL
- AUC(0-t) ([4]; rat, plasma, male SD rats): 5830 ng·h/mL
- Cmax ([4]; rat, plasma, male SD rats): 649 ng/mL
- half-life ([4]; rat, plasma, male SD rats): 4.5 h
